# Test results reported in patent US10376586B2, “Method and compositions for solubilizing non-polar constituents” (Entourage Bioscience, LLC, priority 2016, dated 2019).
# Assays:
# [1] = solubility / solubilization in the MCT carrier oil; details: for stable solution concentration in MCTs: MCTs (0.0-6.0% C6, 6.0-60% C8, 6.0-60% C10), stirring at 85 degrees Celsius for 5 minutes
# Source text: The process for solubilizing target compounds according to the disclosure comprises, in particular, the following steps: (a) preparation of a carrier liquid solution comprising a mixture of medium-chain triglycerides, an amount of this carrier liquid solution is used, the amount depending on the amount of target compound to be solubilized; (b) admixing the carrier liquid solution with the target compound; (c) and, optionally, admixing a stabilizing compound to the carrier liquid/target compound. In some cases, depending on the compound to be solubilized, solvents that dissolve both polar and non-polar compounds such as ethanol, methanol, acetonitrile, 1-butanol or isopropyl alcohol, may be added to encourage solubilization, and then removed by vacuum evaporation. As another aspect, during compounding, dry inert gas may be filtered through the mixture to remove moisture.
# Riboflavin is known to have poor solubility in aqueous solutions and organic solvents. […] It may be desirable to solubilize a higher concentration of riboflavin in an ENDS. […] This mixture may then be added to MCTs (for example 0.0-6.0% C6, 6.0-60% C8, and/or 6.0-60% C10), homogenized for 5 minutes and subsequently heated to approximately 85 degrees Celsius at 250 mb (or 250 hPa) pressure in a rotary evaporator to drive off the methanol.
# Another example may be sulbutiamine. Sulbutiamine is a disulfide dimer of thiamine. […] It may be desirable to provide sulbutiamine in an ENDS. […]
# [2] = cited from earlier work
# [3] = cited from earlier work; remark: listed apart in the source
# [4] = cited from earlier work; remark: listed apart in the source
# [5] = cited from earlier work; remark: listed apart in the source
compound,measurement,setting,value
CC1=CCCC(C)(C)C1/C=C/C(C)=C/C=C/C(C)=C/C=C/C=C(C)/C=C/C=C(C)/C=C/C1=C(C)CCCC1(C)C (stereo not drawn) [alpha-carotene],quantity incorporated into the carrier oil by admixing,[1],< 2 mg/mL
CC(C)=CCC/C(C)=C/C=C/C(C)=C/C=C/C(C)=C/C=C/C=C(C)/C=C/C=C(C)/C=C/C=C(\C)CCC=C(C)C [lycopene],stable solution concentration in MCTs,[1],200 mg/mL
CCCCCCCCCCCCCCCC(=O)OC[C@H](O)[C@H]1OC(=O)C(O)=C1O [ascorbyl palmitate],stable solution concentration in MCTs,[1],200 mg/mL
"CC(=C(CCOC(=O)C(C)C)SSC(CCOC(=O)C(C)C)=C(C)N(C=O)Cc1cnc(C)nc1N)N(C=O)Cc1cnc(C)nc1N (stereo in doubt) [sulbutiamine, reference compound]",stable solution concentration in MCTs,[1],200 mg/mL
same,solubility in aqueous solutions,[2]; aqueous solutions,insoluble
same,solubility in fats,[3],highly soluble
Cc1cc2nc3c(=O)[nH]c(=O)nc-3n(C[C@H](O)[C@H](O)[C@H](O)CO)c2cc1C [riboflavin],solubility in MCTs versus aqueous solutions,[1],an order of magnitude greater solubility
same,"solubility in vegetable glycerin, propylene glycol and water","[2]; vegetable glycerin, propylene glycol and water",less than 0.2 mg/ml
CC1=C[C@H](O)CC(C)(C)[C@H]1/C=C/C(C)=C/C=C/C(C)=C/C=C/C=C(C)/C=C/C=C(C)/C=C/C1=C(C)C[C@@H](O)CC1(C)C [lutein],stable solution concentration in MCTs,[1],200 mg/mL
CC1=C(/C=C/C(C)=C/C=C/C(C)=C/C=C/C=C(C)/C=C/C=C(C)/C=C/C2=C(C)C(=O)[C@@H](O)CC2(C)C)C(C)(C)C[C@H](O)C1=O [Astaxanthin],quantity incorporated into the carrier oil by admixing,[1],< 2 mg/mL
C=C1CC[C@H](O)C/C1=C/C=C1\CCC[C@]2(C)[C@@H]([C@H](C)CCCC(C)C)CC[C@@H]12 [vitamin-D3],miscibility with the carrier oil,[1]; simple admixing with the carrier oil,any proportion
O=C(O)Cc1ccccc1 [phenylacetic acid],pKa,[4],comparable to benzoic acid
same,log P (partition co-efficient),[5],comparable to benzoic acid
"C=C(C)[C@@H]1CCC(C)=C[C@H]1c1c(O)cc(CCCCC)cc1O [Cannabidiol, cannabidiol, reference compound]",solubilized amount in MCTs,"[1]; MCTs, stirring at 45 to 65 degrees Celsius for 5 minutes",up to 80 percent v/v
